Converted amounts (≈) assume the structure as drawn. “Also recorded” adds a separate entry of the source.
Columns and labels:
Salmonella enteritidis = assay: MIC on agar plates (TSA); format: cell-based; details: TSA agar plate, aerobic, 48 hours at 30° C.
Pseudomonas aeruginosa = assay: MIC on agar plates (TSA); format: cell-based; details: TSA agar plate, aerobic, 48 hours at 30° C.
[1] = system: Bifidobacterium adolescentis; assay: MIC on agar plates (RCBA); format: cell-based; details: RCBA agar plate, anaerobic, 72 hours at 30° C.
Bifidobacterium spp. = assay: MIC on agar plates (RCBA); format: cell-based; details: RCBA agar plate, anaerobic, 72 hours at 30° C.
Fusobacterium nucleatum = assay: MIC on agar plates (RCBA); format: cell-based; details: RCBA agar plate, anaerobic, 72 hours at 30° C.
Bacteroides fragilis = assay: MIC on agar plates (RCBA); format: cell-based; details: RCBA agar plate, anaerobic, 72 hours at 30° C.
Clostridium spp. = assay: MIC on agar plates (RCBA); format: cell-based
bacteria tested = assay: Antimicrobial activity on agar plates, summary for the bacteria tested; format: cell-based; details: agar plates
[2] = in vivo
Protocol: (§1) Because the sphingolipids need to be transported together with the food to the small and large intestines to be able to be active there, the transport of phytosphingosine and sphinganine in the stomach and small intestine model TIM-1 was tested. Also, the transport of phytosphingosine in a fistulated pig was tested after the animal had been fed with feed containing phytosphingosine (1 wt. %). In a fistulated pig, the small intestine is uncoupled from the large intestine so that the digested feed at the end of the small intestine can be collected.
To investigate in an in vivo system whether sphingolipids from the food do actually arrive in the large intestine and are not prematurely absorbed or metabolized, pig basic feed to which phytosphingosine (1 wt. %) was added was fed to a fistulated pig.
The feed was prepared by mixing a solution of phytosphingosine in ethanol with the feed and drying it in vacuo. Every hour, the intestinal content (chymus) at the end of the small intestine was separately collected and frozen dry. The dry intestinal contents were then extracted with chloroform/methanol (2:1, v/v). The extracts were then filtered over glass wool and evaporated under a nitrogen flow. The residues were examined for the presence of phytosphingosine, sphingosine, sphinganine and sphingomyelin by means of LC-MS.

[3] = rat, in vivo; cited from earlier work
Listeria monocytogenes = assay: MIC on agar plates (TSA)
[4] = system: Streptococcus suis type 2; assay: MIC on agar plates (TSA)
Bacillus cereus = assay: MIC on agar plates (TSA)
Leuconostoc carnosum = assay: MIC on agar plates (MRSA)
Lactobacillus sake = assay: MIC on agar plates (MRSA)
[5] = system: Lactobacillus acidophilus; assay: MIC on agar plates (MRSA)
Lactobacillus casei = assay: MIC on agar plates (MRSA)
Enterococcus hirae = assay: MIC on agar plates (MRSA)
Clostridium perfringens = assay: microbe, parasite or virus in culture; format: cell-based; details: 72 h, read-out: MIC, C. perfringens
Clostridium difficile [6] = assay: MIC on agar plates (RCBA); format: cell-based; details: Clostridioides difficile; RCBA agar plate, anaerobic, 72 hours at 30° C.
Gram-positive bacteria = assay: Antimicrobial activity on agar plates, summary for Gram-positive bacteria; format: cell-based
Clostridium difficile [7] = assay: Survival in liquid ileum medium; format: cell-based; details: within 200 minutes
[8] = system: Lactobacillus acidophilus; assay: Antimicrobial activity in small intestine model TIM-1; format: cell-based; details: 20 μg/ml of sphingolipid; lumen samples plated on Rogosa agar
Clostridium difficile [9] = assay: as above; format: cell-based; details: 20 μg/ml of sphingolipid; lumen samples plated on Clostridium difficile agar
[10] = format: in vitro ADME
Protocol: as §1
To investigate whether sphingolipids from the food are transported through the small intestine without being absorbed or being chemically or enzymatically modified in the small intestine, phytosphingosine and sphinganine were mixed in a standard Tim-1 food and exposed to a TIM-1 treatment. Of each sphingolipid, 5 mg per 100 grams of food (0.005 wt. %) in the food were tested. After starting the TIM-1 digestion processes in the TIM-1 stomach, at the fixed times, lumen samples of 100 grams were taken. Also, dialysate samples were taken from the material which was transported through the semi-permeable TIM-1 membrane. The dialysate samples varied between 1428 and 1122 grams. […] Next to the samples, the exposure time in minutes is given.

Clostridium difficile [11] = assay: Antimicrobial activity in TIM-2 large intestine model; format: cell-based
Bifidobacterium = assay: as above; format: cell-based
Bacteroides = assay: as above; format: cell-based
Enterococcus = assay: as above; format: cell-based
Lactobacillus = assay: as above; format: cell-based
Enterobacteriaceae = assay: as above; format: cell-based
[12] = system: Lactobacillus acidophilus; assay: Survival in liquid ileum medium; details: within 200 minutes
[13] = system: sulfite-reducing Clostridium; assay: Antimicrobial activity in TIM-2 large intestine model
[14] = TSA agar plate, aerobic, 48 hours at 30° C.
[15] = MRSA agar plate, anaerobic, 72 hours at 30° C.
[16] = ileum medium, absence of bile, 10 and 50 μg/ml
[17] = 60 min, 5 mg per 100 grams of food
[18] = 120 min, 5 mg per 100 grams of food
[19] = 180 min, 5 mg per 100 grams of food
[20] = 240 min, 5 mg per 100 grams of food

sphingomyelin
MIC, S. enteritidis (Salmonella enteritidis): >731 µg/mL | MIC, P. aeruginosa (Pseudomonas aeruginosa): >731 µg/mL | MIC, B. adolescentis [1]: >731 µg/mL | MIC, Bif. spp. (Bifidobacterium spp.): >731 µg/mL | MIC, F. nucleatum (Fusobacterium nucleatum): >731 µg/mL | MIC, B. fragilis (Bacteroides fragilis): >731 µg/mL | MIC, C. spp. (Clostridium spp.; RCBA agar plate, anaerobic, 72 hours at 30° C.): >731 µg/mL | Inhibition of the bacteria tested (bacteria tested): do not inhibit any of the bacteria tested | Presence in the intestinal contents at the end of the small intestine ([2]; pig): larger amounts | Share of the sphingomyelin fed that is found in the feces [3]: approximately 25% | MIC, L. monocytogenes (Listeria monocytogenes; [14]): >731 µg/mL | MIC, S. suis type 2 [4, 14]: >731 µg/mL | MIC, B. cereus (Bacillus cereus; [14]): >731 µg/mL | MIC, L. carnosum (Leuconostoc carnosum; agar plate, anaerobic, 72 hours at 30° C.): >731 µg/mL | MIC, L. sake (Lactobacillus sake; anaerobic, 72 hours at 30° C.): >731 µg/mL | MIC, L. acidophilus ([5]; anaerobic, 72 hours at 30° C.): >731 µg/mL | MIC, L. casei (Lactobacillus casei; [15]): >731 µg/mL | MIC, E. hirae (Enterococcus hirae; [15]): >731 µg/mL

CCCCCCCCCCCCCC[C@@H](O)[C@@H](O)[C@@H](N)CO [Phytosphingosine, phytosphingosine]
MIC (Salmonella enteritidis; Salmonella enterica, ENTERITIDIS, read-out: MIC, S. enteritidis): > 731 µg/mL | MIC (Pseudomonas aeruginosa; Pseudomonas aeruginosa, read-out: MIC, P. aeruginosa): > 731 µg/mL | MIC ([1]; Bifidobacterium adolescentis, read-out: MIC, B. adolescentis): 8 µg/mL (≈ 25.2 µM) | MIC (Bifidobacterium spp.; Bifidobacterium, read-out: MIC, Bif. spp.): 0.9 µg/mL (≈ 2.83 µM) | MIC (Fusobacterium nucleatum; Fusobacterium nucleatum, read-out: MIC, F. nucleatum): < 6.3 µg/mL | MIC (Bacteroides fragilis; Bacteroides fragilis, read-out: MIC, B. fragilis): 2.1 µg/mL (≈ 6.61 µM) | MIC (Clostridium perfringens): 5.9 µg/mL (≈ 18.6 µM) | MIC (Clostridium difficile [6]): 5.7 µg/mL (≈ 18 µM) | MIC (Clostridium spp.; Clostridium, 72 h, read-out: MIC, C. spp.): 1.1 µg/mL (≈ 3.46 µM) | Antimicrobial activity against Gram-positive bacteria (Gram-positive bacteria): killed; also recorded: strong antimicrobial activity | Killing of Clostridium difficile (Clostridium difficile [7]; [16]): virtually completely killed | Killing of Clostridium difficile (Clostridium difficile [7]; liquid cultures, 50 ppm): for the larger part killed | Antimicrobial activity against Lactobacillus acidophilus in TIM-1 [8]: no demonstrable antimicrobial activity | Antimicrobial activity against Clostridium difficile in TIM-1 (Clostridium difficile [9]): no demonstrable antimicrobial activity | Transport through the TIM-1 system [10]: transported to the large intestine to a sufficient extent | Concentration in TIM-1 sample: Dialysate ileum 0-120′ ([10]; 5 mg per 100 grams of food): 0 ng/mL | Concentration in TIM-1 sample: Dialysate ileum 120-240′ ([10]; 5 mg per 100 grams of food): 0 ng/mL | Concentration in TIM-1 sample: Dialysate jejunum 0-120′ ([10]; 5 mg per 100 grams of food): 0 ng/mL | Concentration in TIM-1 sample: Dialysate jejunum 120-240′ ([10]; 5 mg per 100 grams of food): 0 ng/mL | Concentration in TIM-1 sample: Food ([10]; 5 mg per 100 grams of food): 5190 ng/mL | Concentration in TIM-1 sample: Residue jejunum/ileum + dialysis fluid ([10]; 5 mg per 100 grams of food): 3320 ng/mL | Concentration in TIM-1 sample: Residue stomach/duodenum + dialysis fluid ([10]; 5 mg per 100 grams of food): 1030 ng/mL | Share of the amount used found in the samples (rough mass balance) ([10]; 5 mg per 100 grams of food): approx. 20% | Concentration in TIM-1 sample: Lumen ileum 60′ [10, 17]: 200 ng/mL | Concentration in TIM-1 sample: Lumen jejunum 60′ [10, 17]: 1470 ng/mL | Concentration in TIM-1 sample: Lumen ileum 120′ [10, 18]: 2230 ng/mL | Concentration in TIM-1 sample: Lumen jejunum 120′ [10, 18]: 1790 ng/mL | Concentration in TIM-1 sample: Lumen ileum 180′ [10, 19]: 2220 ng/mL | Concentration in TIM-1 sample: Lumen jejunum 180′ [10, 19]: 3410 ng/mL | Concentration in TIM-1 sample: Lumen ileum 240′ [10, 20]: 1960 ng/mL | Concentration in TIM-1 sample: Lumen jejunum 240′ [10, 20]: 4100 ng/mL | Health of the pig [2]: remained healthy | Maximum phytosphingosine in intestinal contents at the end of the small intestine ([2]; pig): 76 μg/g of dry intestinal contents | Time from which phytosphingosine leaves the small intestine ([2]; pig): from two hours after feeding | Time of the maximum after feeding ([2]; pig): 9 h | Killing of C. difficile (Clostridium difficile [11]; TIM-2, 10 μg/ml): no significant killing | Decrease of C. difficile (Clostridium difficile [11]; TIM-2, 50 μg/ml, within 12 hours): 550 fold | Selectivity of antimicrobial activity against Clostridium difficile (Clostridium difficile [11]; TIM-2 large intestine model): selective antimicrobial activity | Killing of other bacteria: Bifidobacterium (Bifidobacterium; 10 μg/ml): no significant killing | Bifidobacterium decreases by a factor of (Bifidobacterium; 50 μg/ml): 55 | Killing of other bacteria: Bacteroides (Bacteroides; 10 μg/ml): no significant killing | Bacteroides decreases by a factor of (Bacteroides; 50 μg/ml): 10 | Killing of other bacteria: Enterococcus (Enterococcus; 10 μg/ml): no significant killing | Enterococcus decreases by a factor of (Enterococcus; 50 μg/ml): 5 | Killing of other bacteria: Lactobacillus (Lactobacillus; 10 μg/ml): no significant killing | Lactobacillus decreases by a factor of (Lactobacillus; 50 μg/ml): 24 | Killing of other bacteria: Enterobacteriaceae (Enterobacteriaceae; 10 μg/ml): no significant killing | Enterobacteriaceae decrease by a factor of (Enterobacteriaceae; 50 μg/ml): 77 | MIC (Listeria monocytogenes; Listeria monocytogenes, 48 h, read-out: MIC, L. monocytogenes): 6.3 µg/mL (≈ 19.8 µM) | MIC ([4]; Streptococcus suis, TYPE2, 48 h, read-out: MIC, S. suis type 2): 6.3 µg/mL (≈ 19.8 µM) | MIC (Bacillus cereus; Bacillus cereus, 48 h, read-out: MIC, B. cereus): 6.3 µg/mL (≈ 19.8 µM) | MIC (Leuconostoc carnosum; 72 h, read-out: MIC, L. carnosum): < 0.3 µg/mL | MIC (Lactobacillus sake; Latilactobacillus sakei, 72 h, read-out: MIC, L. sake): 2.2 µg/mL (≈ 6.93 µM) | MIC ([5]; Lactobacillus acidophilus, 72 h, read-out: MIC, L. acidophilus): > 36.5 µg/mL | MIC (Lactobacillus casei; Lacticaseibacillus casei, 72 h, read-out: MIC, L. casei): > 36.5 µg/mL | MIC (Enterococcus hirae; Enterococcus hirae, 72 h, read-out: MIC, E. hirae): > 36.5 µg/mL | Killing of Lactobacillus acidophilus [12, 16]: virtually completely killed | Killing of Lactobacillus acidophilus ([12]; liquid cultures, 50 ppm): for the larger part killed | Killing of other bacteria: sulfite-reducing clostridia ([13]; 10 μg/ml): no significant killing | Sulfite-reducing Clostridium decreases by a factor of ([13]; 50 μg/ml): 36

Source: patent US8703172B2, “Sphingolipids for improvement of the composition of the intestinal flora” (Nederlandse Organizatie voor …, priority 2003, dated 2014)
